Test results: US6610707B1, “Heterocyclic compounds as inhibitors of rotomase enzymes” (Pfizer Inc., priority 1998, dated 2003)
Values belong to the compound of their own block, whether it stands above or below them.

Legend:
[1] = molecular target: human recombinant FKBP-12 (Homo sapiens, UniProt P62942); assay: coupled colorimetric PPIase (rotamase) assay, IC50 against FKBP-12; format: biochemical; conditions: human recombinant FKBP-12, substrate succinyl-AFPF-pNA, 10° C., pH 8.0
Text: The affinity of the compounds of the formula (I) for FKBP-12 can be determined in vitro in a coupled colorimetric PPlase assay using similar procedures to published methods (e.g. see Kofron, J. L., et al., Biochemistry, 1991, 30, 6127-6134, Zarnt, T., et al., Biochem. J. 1995, 305, 159-164, Holt, D. A., et al., J. Am. Chem. Soc., 1993,115, 9925-9938). In these methods, the cis-trans isomerisation of a hydrophobic amino acid-proline bond in a tetrapeptide substrate (e.g. the phenylalanine-proline bond in N-succinyl-ala-phepro-phe-p-nitroanilide [succinyl-AFPF-pNA]) can be determined by monitoring cleavage of pNA from the transPro-containing peptide by an excess of chymotrypsin.
The IC50 (the concentration of the compound of the formula (I) producing 50% inhibition) values were determined using the following assay methodology. Assay buffer (2.175 ml) (50 mM 4-(2-hydroxyethyl)-1-piperazineethanesulphonic acid (HEPES), 100 mM NaCl, 1 mM dithiothreitol (DTT), pH 8.0) is equilibrated to 10° C. in a cuvette. 12.5 μl of a solution of the present compound in DMSO, 250 μl of a 60 mg/ml solution of a-chymotrypsin in 1 mM aqueous hydrochloric acid and then 50 μl of a solution of human recombinant FKBP-12 (4.5 μM) in assay buffer are added and mixed. The reaction is initiated by addition of 12.5 μl of a solution of 20 mM succinyl-AFPF-pNA in DMSO. The absorbance at 390 nm is monitored for one minute collecting data every 0.25 second. Data are fitted with a first order rate equation with offset and the rate constant obtained corrected for the rate of uncatalysed isomerisation of the substrate. The rate constant determined at different inhibitor concentrations (10 nM to 100 μM) is expressed as % inhibition of the control rate constant. The IC50 is estimated using a nonlinear least squares curve fitting routine of the sigmoidal dose response data.

human recombinant FKBP52 = molecular target: T1, human recombinant FKBP52 (Homo sapiens, UniProt Q02790); assay: coupled colorimetric PPIase assay, Ki,app against FKBP52; format: biochemical; conditions: human recombinant FKBP52, substrate succinyl-ALPF-pNA, printed in the IC50 (nm) FKBP-12 column, read-out: Ki FKBP-52
T1 sequence (Q02790 1-459): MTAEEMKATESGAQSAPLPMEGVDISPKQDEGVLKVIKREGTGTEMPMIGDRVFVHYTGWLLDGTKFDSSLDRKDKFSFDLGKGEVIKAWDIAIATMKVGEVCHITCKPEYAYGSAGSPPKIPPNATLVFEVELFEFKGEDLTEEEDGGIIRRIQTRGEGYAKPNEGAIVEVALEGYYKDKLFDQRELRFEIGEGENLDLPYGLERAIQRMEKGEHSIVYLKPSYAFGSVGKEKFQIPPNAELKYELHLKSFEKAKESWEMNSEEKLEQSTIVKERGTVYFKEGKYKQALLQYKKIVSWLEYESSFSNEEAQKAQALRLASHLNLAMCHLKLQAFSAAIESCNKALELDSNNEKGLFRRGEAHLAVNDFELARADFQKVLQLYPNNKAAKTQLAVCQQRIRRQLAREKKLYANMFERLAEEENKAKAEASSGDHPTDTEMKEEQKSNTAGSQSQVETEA

human recombinant FKBP-12, sequence (P62942 whole entry): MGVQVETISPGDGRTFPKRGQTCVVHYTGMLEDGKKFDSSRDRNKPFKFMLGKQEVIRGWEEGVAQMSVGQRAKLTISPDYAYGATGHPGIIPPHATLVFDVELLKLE

- Ki (human recombinant FKBP52): 685 nM
Compound: NCc1ccc(OCc2nc([C@@H]3CCCCN3S(=O)(=O)c3nc4ccccc4[nH]3)no2)cc1 [Example 11, 4-(3-[(2S)-1-(1H-Benzo[d]imidazol-2-ylsuffonyl)-2-piperidyl]-1,2,4-oxadiazol-5-ylmethoxy)benzylamine]

- IC50 [1]: 91 nM
Compound: CNCc1ccc(OCc2nc(C3CCCCN3S(=O)(=O)c3nc4ccccc4[nH]3)no2)cc1 (centres unmarked) [Example 14, N-[4-(3-[1-(1H-Benzo[d]imidazol-2-ylsulfonyl)-2-piperidyl]-1,2,4-oxadiazol-5-ylmethoxy)benzyl]-N-methylamine]

- IC50 [1]: 95 nM
Compound: O=S(=O)(c1nc2ccccc2[nH]1)N1CCCC[C@H]1c1noc(Cc2ccccc2)n1 [Example 1, 1H-Benzo[d]imidazol-2-yl[(2S)-2-(5-benzyl-1,2,4-oxadiazol-3-yl)-1-piperidyl]sulfone]

- IC50 [1]: 442 nM
Compound: O=S(=O)(c1nc2ccccc2[nH]1)N1CCCCC1c1noc(-c2ncccn2)n1 (centres unmarked) [Example 65]

Second part, the compound before the results:

Compound: O=S(=O)(CC1CCCCC1)N1CCCC[C@H]1c1noc(COC2CCNCC2)n1 [Example 23, 3-[(2S)-1-Cyclohexylmethylsulfonyl-2-piperidyl]-5-[4-piperidyloxymethyl]-1,2,4-oxadiazole]
- IC50 [1]: 336 nM

Compound: O=S(=O)(c1ccc(F)cc1)N1CCCC[C@H]1c1nnn(Cc2ccccc2)n1 [Example 43]
- IC50 [1]: 1670 nM

Compound: O=S(=O)(c1ccc(F)cc1)N1CCCC[C@H]1c1nnc(CCc2ccccc2)o1 [Example 42]
- IC50 [1]: 2010 nM

Compound: NCc1ccc(-c2nc([C@@H]3CCCCN3S(=O)(=O)CC3CCCCC3)no2)o1 [Example 25, [5-(3-(2S)-1-[(Cyclohexylmethyl)sulfonyl]-2-piperidyl-1,2,4-oxadiazol-5-yl)-2-furyl]methylamine]
- IC50 [1]: 81 nM
